Source: patent US10766865B2, “PKM2 modulators and methods for their use” (TOLERO PHARMACEUTICALS, INC., priority 2012, dated 2020)

These compounds were tested against PKM2 (Homo sapiens, UniProt P14618) (assay: PKM2 Biochemical Assay). Settings: % maximum response in a biochemical assay as compared with Fructose 1,6-bisphosphate.
Chain of PKM2 (P14618 whole entry): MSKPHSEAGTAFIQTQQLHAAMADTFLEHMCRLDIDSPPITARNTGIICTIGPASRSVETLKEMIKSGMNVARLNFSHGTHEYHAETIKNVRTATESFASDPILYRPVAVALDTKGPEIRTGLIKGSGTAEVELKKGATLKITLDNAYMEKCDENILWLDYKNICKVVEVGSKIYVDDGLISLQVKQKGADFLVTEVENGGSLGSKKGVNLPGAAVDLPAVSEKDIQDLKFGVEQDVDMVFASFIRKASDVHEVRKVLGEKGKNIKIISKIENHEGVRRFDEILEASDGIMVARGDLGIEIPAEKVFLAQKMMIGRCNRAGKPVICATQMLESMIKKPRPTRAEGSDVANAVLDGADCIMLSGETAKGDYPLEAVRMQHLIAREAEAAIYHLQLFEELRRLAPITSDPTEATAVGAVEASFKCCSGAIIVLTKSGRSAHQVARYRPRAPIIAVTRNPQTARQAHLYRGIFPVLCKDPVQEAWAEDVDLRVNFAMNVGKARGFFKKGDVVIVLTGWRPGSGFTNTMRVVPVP

| Max. Resp. [%] | SMILES |
| --- | --- |
| 100 | Nc1ccc(Cl)c(CN(CCN2CCCCCC2)C(=O)c2cc(C(F)(F)F)n[nH]2)c1 [Example 196, N-(5-amino-2-chlorobenzyl)-N-(2-(azepan-1-yl)ethyl)-3-(trifluoromethyl)-1H-pyrazole-5-carboxamide] |
| 58 | CCN(CC)CCN(Cc1ccccc1Cl)C(=O)c1[nH]nc(Cl)c1F [Example 193, N-(2-chlorobenzyl)-3-chloro-N-(2-(diethylamino)ethyl)-4-fluoro-1H-pyrazole-5-carboxamide] |
| 100 | CC1CCN(CCN(Cc2ccccc2Cl)C(=O)c2cc(C(F)(F)F)n[nH]2)CC1 [Example 190, N-(2-chlorobenzyl)-3-(trifluoromethyl)-N-(2-(4-methylpiperidin-1-yl)ethyl)-1H-pyrazole-5-carboxamide] |
| 75 | Nc1ccc(CN(CCN2CCCCCC2)C(=O)c2cc(C(F)(F)F)n[nH]2)c(Cl)c1 [Example 207, N-(4-amino-2-chlorobenzyl)-N-(2-(azepan-1-yl)ethyl)-3-(trifluoromethyl)-1H-pyrazole-5-carboxamide] |
| 74 | O=C(c1cc(C(F)(F)F)n[nH]1)N(CCC1CCS(=O)(=O)C1)Cc1ncccc1Cl (stereo not drawn) [Example 92] |
| 100 | CN(C)CCCN(Cc1ccccc1Cl)C(=O)c1cc(C(F)(F)F)n[nH]1 [Example 186, N-(2-chlorobenzyl)-N-(3-(dimethylamino)propyl)-3-(trifluoromethyl)-1H-pyrazole-5-carboxamide] |
| 68 | CCN1CCC(N(Cc2ccccc2F)C(=O)c2cc(C(F)(F)F)n[nH]2)C1 (stereo not drawn) [Example 152, N-(2-fluorobenzyl)-N-(1-ethylpyrrolidin-3-yl)-3-(trifluoromethyl)-1H-pyrazole-5-carboxamide] |
| 100 | CCN(CC)CCN(Cc1cc(N)ccc1Cl)C(=O)c1cc(C(F)(F)F)n[nH]1 [Example 183, N-(5-amino-2-chlorobenzyl)-N-(2-(diethylamino)ethyl)-3-(trifluoromethyl)-1H-pyrazole-5-carboxamide] |
| 70 | O=C(c1cc(C(F)(F)F)n[nH]1)N(CCC1CCCO1)Cc1ccccc1F (stereo not drawn) [Example 46] |
| 100 | O=C(c1cc(C(F)(F)F)n[nH]1)N(CCC1CCC2(CC1)OCCO2)Cc1ccccc1F [Example 59, N-(2-(1,4-dioxaspiro[4.5]decan-8-yl)ethyl)-N-(2-fluorobenzyl)-3-(trifluoromethyl)-1H-pyrazole-5-carboxamide] |
| 100 | O=C(c1cc(C(F)(F)F)n[nH]1)N(CCN1CCCC1)Cc1ccccc1F [Example 158, N-(2-fluorobenzyl)-3-(trifluoromethyl)-N-(2-(pyrrolidin-1-yl)ethyl)-1H-pyrazole-5-carboxamide] |
| 100 | Nc1cccc(Cl)c1CN(CCN1CCCCCC1)C(=O)c1cc(C(F)(F)F)n[nH]1 [Example 218, N-(2-amino-6-chlorobenzyl)-N-(2-(azepan-1-yl)ethyl)-3-(trifluoromethyl)-1H-pyrazole-5-carboxamide] |
| 64 | O=C(c1cc(C(F)(F)F)n[nH]1)N(CCN1CCS(=O)(=O)CC1)Cc1cccc(F)c1F [Example 111] |
| 71 | CCN1CCC(CCN(Cc2c(Cl)cccc2Cl)C(=O)c2cc(C(F)(F)F)n[nH]2)CC1 [Example 105] |
| 63 | CC(C)O[C@H]1CC[C@H](N(Cc2ccccc2Cl)C(=O)c2cc(C(F)(F)F)n[nH]2)CC1 [Example 53] |
| 100 | O=C(c1cc(Br)n[nH]1)N(Cc1ccc(O)cc1F)CC1CCC1 [Example 245] |
| 82 | COCCCN(Cc1ccccc1Cl)C(=O)c1cc(C(F)(F)F)n[nH]1 [Example 31] |

| Max. Resp. [%] | SMILES |
| --- | --- |
| 31 | CO[C@H]1CC[C@H](N(Cc2cc(F)cc(F)c2)C(=O)c2cc(C(F)(F)F)n[nH]2)CC1 [Example 51] |
| 95 | O=C(c1cc(C(F)(F)F)n[nH]1)N(CCC1CC[S+]([O-])CC1)Cc1ccccc1Cl (stereo not drawn) [Example 74, N-(2-CHLOROBENZYL)-N-(2-(1-OXIDOTETRAHYDRO-2H-THIOPYRAN-4-YL)ETHYL)-3-(TRIFLUOROMETHYL)-1H-PYRAZOLE-5-CARBOXAMIDE] |
| 100 | O=C(c1cc(C(F)(F)F)n[nH]1)N(CCN1CCCCC1)Cc1c(F)cccc1Cl [Example 179, N-(2-chloro-6-fluorobenzyl)-3-(trifluoromethyl)-N-(2-(piperidin-1-yl)ethyl)-1H-pyrazole-5-carboxamide] |
| 24 | O=C(c1cc(C(F)(F)F)n[nH]1)N(CCC1CCS(=O)(=O)C1)Cc1cccnc1 (stereo not drawn) [Example 90] |
| 100 | CCN(CC)CCN(Cc1ccccc1Cl)C(=O)c1cc(C(F)(F)F)n[nH]1 [Example 159, N-(2-chlorobenzyl)-N-(2-(diethylamino)ethyl)-3-(trifluoromethyl)-1H-pyrazole-5-carboxamide] |
| 110 | O=C(c1cc(C(F)(F)F)n[nH]1)N(CCC1CCOC1)Cc1ccccc1Cl (stereo not drawn) [Example 43] |
| 69 | O=C(c1cc(C(F)(F)F)n[nH]1)N(CCC1CCS(=O)(=O)C1)Cc1cccc([N+](=O)[O-])c1Cl (stereo not drawn) [Example 94, N-(2-chloro-3-nitrobenzyl)-N-(2-(1,1-dioxidotetrahydrothiophen-3-yl)ethyl)-3-(trifluoromethyl)-1H-pyrazole-5-carboxamide] |
| 100 | Nc1cccc(Cl)c1CN(CCN1CCCC(F)CC1)C(=O)c1cc(C(F)(F)F)n[nH]1 (stereo not drawn) [Example 243, N-(2-amino-6-chlorobenzyl)-N-(2-(4-fluoroazepan-1-yl)ethyl)-3-(trifluoromethyl)-1H-pyrazole-5-carboxamide] |
| 100 | O=C(c1cc(C(F)(F)F)n[nH]1)N(CCc1ccc(O)cc1)Cc1ccccc1Cl [Example 230, N-(2-chlorobenzyl)-N-(4-hydroxyphenethyl)-3-(trifluoromethyl)-1H-pyrazole-5-carboxamide] |
| 46 | O=C(c1cc(Cl)n[nH]1)N(CCC1CCSCC1)Cc1ccccc1F [Example 80] |
| 100 | O=C(c1cc(C(F)(F)F)n[nH]1)N(CCN1CCCC1)Cc1cccc2[nH]ccc12 [Example 164, N-((1H-indol-4-yl)methyl)-3-(trifluoromethyl)-N-(2-(pyrrolidin-1-yl)ethyl)-1H-pyrazole-5-carboxamide] |
| 30 | O=C(c1cc(C(F)(F)F)n[nH]1)N(CCOC1CCCC1)Cc1ccccc1F [Example 39] |
| 100 | CCOCCN(Cc1ccc(O)cc1F)C(=O)c1cc(C(F)(F)F)n[nH]1 [Example 24] |
| 100 | O=C(c1cc(C(F)(F)F)n[nH]1)N(Cc1cccc2[nH]cnc12)CC1CCC1 [Example 123, N-((1H-benzo[d]imidazol-4-yl)methyl)-N-(cyclobutylmethyl)-3-(trifluoromethyl)-1H-pyrazole-5-carboxamide] |
| 72 | O=C(c1cc(Cl)n[nH]1)N(CCC1CCS(=O)(=O)CC1)Cc1ccccc1F [Example 81] |
| 26 | O=C(c1cc(C(F)(F)F)n[nH]1)N(CCC1CCS(=O)(=O)C1)Cc1cncs1 (stereo not drawn) [Example 93] |

Same assay, conditions: read-out: % FBP (extent of maximal activation, relative to FBP)

| Emax [%] | SMILES |
| --- | --- |
| 100 | O=C(COP(=O)(O)O)[C@@H](O)[C@H](O)[C@H](O)COP(=O)(O)O [FBP, fructose-1,6-bisphosphate, reference compound] |

Same assay, conditions: read-out: AC50 (concentration of half-maximal PKM2 activation); Table 2, n = 6 to 10

| AC50 [nM] | SMILES |
| --- | --- |
| 23 ± 8 | O=C(COP(=O)(O)O)[C@@H](O)[C@H](O)[C@H](O)COP(=O)(O)O [FBP, fructose-1,6-bisphosphate, reference compound] |

Same assay, conditions: relative to activity in DMSO controls (normalized to 100%), FIG. 1B

| Maximal PKM2 activity | SMILES |
| --- | --- |
| approximately 600% | O=C(COP(=O)(O)O)[C@@H](O)[C@H](O)[C@H](O)COP(=O)(O)O [FBP, fructose-1,6-bisphosphate, reference compound] |
